Where a SMILES comes first, the peptide text is derived from it.
Key:
[1] = system: S. aureus (Liberec) biofilm; assay: Bacterial biofilm, remaining metabolic activity (MTT); type: cell-based, Staphylococcus aureus; conditions: remaining metabolic activity of biofilm, 20 h
Protocol: (§1) Inoculum of S. aureus (Liberec) or P. aeruginosa (Liberec) cultivated overnight in BHI medium was diluted with fresh BHI medium containing 1% glucose to a final concentration to be ca. 10^8 CFU/ml. Then this was pipetted (100 μl) to 96-multiwell polystyrene plate which was incubated at 37° C. under rotary shaking (300 RPM) for 24 h. Medium without bacteria in the wells was used as a negative control. Supernatant from each well was drained and the biofilm formed on the bottom and on the walls of the wells was cautiously washed three times by sterile physiological solution (300 μl). The peptides tested in the concentrations of 1-128 μmol.l^−1 were prepared by twofold serial dilution of their stock solution (1 mmol.l^−1) in fresh BHI medium and then pipetted (100 μl) to the wells with formed biofilms. The biofilms covered by BHI medium without peptide were used as a positive control. The plates were then incubated for 20 h as described above. After that the liquid was drained out and wells were washed twice with sterile physiological solution.
(§2) The metabolic activity of surviving bacterial cells in the biofilm was determined by staining with MTT (3-(4,5-dimethylthiazol-2-yl)-2,5-diphenyl-2H-tetrazolium bromide) as follows: The mixture of BHI medium (100 μl) and 10 μl of the stock solution of MTT (5 mg/ml in physiological solution) was added to each well and the plate was incubated 40 min at 37° C. The liquid was drained out and the insoluble formazan crystals formed by reduction inside the biofilm were dissolved with dimethyl sulphoxide (100 μl). The intensity of staining in each well was measured as absorbance at 540 nm on a Tecan Infinite M200 Pro reader (Tecan GmbH, Austria). Remaining activity of surviving cells inside the biofilm was expressed for each well in percentage according to the following equation:
(§3) [formula] where A is the absorbance of the tested compound, ABL is the absorbance of the negative control, and AC is the absorbance of control biofilm.

C. glabrata ATCC 2001 = assay: Lethal effect on yeast cells by plating test; type: cell-based, Candida glabrata; conditions: 15 minutes exposure, peptide alone, FIG. 1B
Protocol: C. glabrata ATCC 2001 cells were aerobically cultivated at 30° C. on YPD medium (Formedium) overnight. A small volume of inoculum was added to fresh YPD medium to final concentration of cells 5×10^6 CFU/ml (corresponding value OD600=0.2). Yeast cells were cultivated at 30° C. (190 rpm) until they reach early exponential growth phase, usually further 4-5 h. Cells were harvested, washed twice with distilled water (1.5 min, 3000 g) and resuspended in MES-TEA buffer (10 mM 4-morpholineethanesulphonic acid, pH 6.0 adjusted with triethanolamine, both chemicals from Sigma-Aldrich) to OD600=0.2.
Cells from the early exponential growth phase were washed twice with sterile distilled water (1.5 min, 3000 g) and resuspended in MES-TEA buffer to OD600=0.2. The cell suspension was divided into 1 ml aliquots in Eppendorf tubes. One sample served as a control, the tested compounds (peptides, ODDC) were added in selected concentrations to the rest of samples. Cells were incubated with drugs with occasional gentle stirring for 15 minutes, then 10 μl of cells were diluted 100-fold in distilled water and 15 μl aliquots were spread on 2% YPD agar (Formedium) plates (diameter of Petri plate 9 cm). The samples were always plated in triplicates. The number of colonies was determined after 24-h incubation of the plates at 30° C. […]

[2] = system: Candida albicans (Olomouc) biofilm; assay: C. albicans biofilm, remaining metabolic activity (XTT); type: cell-based
Procedure, shortened: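 Candida albicans (Olomouc) biofilms grown 48 h at 37 °C in MOPS-buffered RPMI 1640 from 1×10^6 CFU inocula, then exposed 20 h to peptide at 0.39-200 μmol.l^−1. XTT/PMS staining for 90 min, A540; remaining metabolic activity expressed as percent of untreated biofilm after blank correction.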

in vitro = conditions: human
Procedure, shortened: (§4)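 Hemolysis expressed as LC50, the concentration giving 50% erythrocyte lysis. Supernatant A540 was scaled between buffer-only blank and 0.2% Triton X100 total lysis after 1 h, 37 °C exposure of 5% v/v human red cells to 2-200 μmol.l^−1 peptide in physiological solution.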

[3] = system: P. aeruginosa (Liberec) biofilm; assay: Bacterial biofilm, remaining metabolic activity (MTT); type: cell-based, Pseudomonas aeruginosa; conditions: remaining metabolic activity of biofilm, 20 h
Protocol: as §1, §2, §3

[4] = system: Pseudomonas aeruginosa Liberec; conditions: Pseudomonas aeruginosa Liberec; 37° C., 20 h
Procedure, shortened: (§5)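 Quantitative MIC: ~10^5 CFU per well of clinical or collection strains in LB with peptide from 0.1 to 100 μmol.l^−1. Kinetic turbidity (540 nm, 15-min intervals) at 37 °C for 20 h.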

[5] = system: Methicillin resistant Staphylococcus aureus (MRSA) 6271; conditions: 37° C., 20 h
Procedure, shortened: as §5

Escherichia coli = conditions: 37° C., 20 h
Procedure, shortened: as §5

[6] = system: Enterococcus faecalis Motol; conditions: BHI medium, 37° C., 20 h
Candida albicans Olomouc = conditions: Candida albicans Olomouc; YPD medium; 37° C., 20 h (Example 2)
[7] = system: Staphylococcus aureus Liberec; conditions: Staphylococcus aureus Liberec clinical isolate; 37° C., 20 h
Procedure, shortened: as §5

Bacillus subtilis = conditions: Bacillus subtilis; 37° C., 20 h
Procedure, shortened: as §5

[8] = system: Staphylococcus aureus Motol; conditions: Staphylococcus aureus Motol clinical isolate; 37° C., 20 h
Procedure, shortened: as §5

[9] = system: Pseudomonas aeruginosa 5482; conditions: 37° C., 20 h
Procedure, shortened: as §5

[10] = system: Staphylococcus epidermidis Motol; conditions: 37° C., 20 h
Procedure, shortened: as §5

human red blood cells = assay: in vitro
Procedure, shortened: as §4

S. aureus (Liberec) = assay: Synergistic effect of peptides with antibiotics, FIC index; type: cell-based, Staphylococcus aureus; conditions: peptide combined with amoxicillin; FIC <0.5 synergism, 0.5-2 additive, >2 antagonism; averages of three experiments
Protocol: MICs values of various combinations of two fold serial dilutions of peptides and antibiotics were determined using the same methodology as in the case of antimicrobial activity determination (Example 2). To consider the type of the final effect, FIC indexes (fractional inhibitory concentration) were used and calculated as follows:
[formula] where MICPC and MICAC are the MICs of the peptide and antibiotic in combination, respectively, and MICP and MICA are the MICs of the peptide and antibiotic tested alone, respectively. FIC<0.5 were considered as synergy, 0.5≤FIC≤2 as addition effect, and FIC>2 as antagonism.

P. aeruginosa (Liberec) = assay: as above; type: cell-based, Pseudomonas aeruginosa; conditions: FIC <0.5 synergism, 0.5-2 additive, >2 antagonism, averages of three experiments
Procedure, shortened: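 Checkerboard MICs of two-fold serial dilutions of peptide plus antibiotic, same broth method as single-agent MICs. FIC index is the sum of each agent's MIC in combination divided by its MIC alone. <0.5 = synergy, 0.5–2 = additive, >2 = antagonism.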

Micrococcus luteus = conditions: Micrococcus luteus; 37° C., 20 h
Procedure, shortened: as §5

[11] = system: Candida albicans ATCC MYA-2876; assay: microbe, parasite or virus in culture; type: cell-based; conditions: RPMI broth microdilution, 35° C., 48 hours, visual
Procedure, shortened: (§6)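 Five colonies from 24 h cultures were suspended in saline to OD600 0.18 and diluted 1:50 and then 1:20 into RPMI 1640 containing MOPS. This inoculum was mixed 1:1 with peptide dilutions of 0.625–160 μmol.l^−1. After 48 h at 35 °C, the MIC was scored by eye as the first well lacking growth.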

[12] = system: Candida tropicalis ATCC 750; assay: microbe, parasite or virus in culture; type: cell-based; conditions: RPMI broth microdilution, 35° C., 48 hours, visual
Procedure, shortened: as §6

[13] = system: Candida albicans (Olomouc); assay: microbe, parasite or virus in culture; type: cell-based; conditions: RPMI broth microdilution, 35° C., 48 hours, visual
Procedure, shortened: as §6

[14] = system: Candida glabrata ATCC 2001; assay: microbe, parasite or virus in culture; type: cell-based; conditions: RPMI broth microdilution, 35° C., 48 hours, visual
Procedure, shortened: as §6

Candida krusei ATCC 6258 = assay: microbe, parasite or virus in culture; type: cell-based; conditions: RPMI broth microdilution, 35° C., 48 hours, visual
Procedure, shortened: as §6

[15] = system: Candida dubliniensis ATCC MYA-646; assay: microbe, parasite or virus in culture; type: cell-based; conditions: RPMI broth microdilution, 35° C., 48 hours, visual
Procedure, shortened: as §6

Candida glabrata DSY 565 = assay: microbe, parasite or virus in culture; type: cell-based; conditions: RPMI broth microdilution, 35° C., 48 hours, visual
Procedure, shortened: as §6

[16] = peptide concentration 8 μmol · l^−1
[17] = peptide concentration 16 μmol · l^−1
[18] = peptide concentration 32 μmol · l^−1
[19] = peptide concentration 64 μmol · l^−1
[20] = peptide concentration 128 μmol · l^−1

Row | Compound | Metabolic activity (%) S. aureus (Liberec) [1, 16] | Metabolic activity (%) S. aureus (Liberec) [1, 17] | Metabolic activity (%) S. aureus (Liberec) [1, 18] | Metabolic activity (%) S. aureus (Liberec) [1, 19] | Metabolic activity (%) S. aureus (Liberec) [1, 20] | Antimicrobial activity MIC P. a. Liberec [4] | Antimicrobial activity MIC S. a. 6271 [5] | Antimicrobial activity MIC E. c. (Escherichia coli) | Antimicrobial activity MIC E. f. Motol [6] | Antimicrobial activity MIC C. a. Olomouc (Candida albicans Olomouc) | Antimicrobial activity MIC S. a. Liberec [7] | Antimicrobial activity MIC B. s. (Bacillus subtilis) | Antimicrobial activity MIC S. a. Motol [8] | Antimicrobial activity MIC P. a. 5482 [9] | Antimicrobial activity MIC S. e. Motol [10] | other results
1 | CC[C@@H](C)[C@@H](NC(=O)CN)C(=O)N[C@H](CCSC)C(=O)N[C@H](CO)C(=O)N[C@H](CO)C(=O)N[C@H](CC(C)C)C(=O)N[C@H](CCSC)C(=O)N[C@H](CCCCN)C(=O)N[C@H](CCCCN)C(=O)N[C@H](CC(C)C)C(=O)N[C@H](CCCCN)C(=O)N[C@H](CCCCN)C(=O)N[C@@H](C(=O)N[C@@H](C(=O)N[C@H](C)C(=O)N[C@H](CCCCN)C(N)=O)[C@H](C)CC)[C@H](C)CC [II] (HELM PEPTIDE1{G.[dI].[dM].[dS].[dS].[dL].[dM].[dK].[dK].[dL].[dK].[dK].[dI].[dI].[dA].[dK].[am]}$$$$V2.0) | 143.1% | 138.8% | 107.5% | 29.9% | 7.7% |  |  |  |  |  |  |  |  |  |  | antifungal (lethal) effect in plating test (C. glabrata ATCC 2001): high antifungal effect; Metabolic activity of C. albicans (%) ([2]; peptide concentration 6.25 μmol · l^−1, 20 hours): 105.3%; Metabolic activity of C. albicans (%) ([2]; peptide concentration 12.5 μmol · l^−1, 20 hours): 114.2%; Metabolic activity of C. albicans (%) ([2]; peptide concentration 25 μmol · l^−1, 20 hours): 35.2%; Metabolic activity of C. albicans (%) ([2]; peptide concentration 50 μmol · l^−1, 20 hours): 1.0%; Metabolic activity of C. albicans (%) ([2]; peptide concentration 100 μmol · l^−1, 20 hours): 0.0%; Metabolic activity of C. albicans (%) ([2]; peptide concentration 200 μmol · l^−1, 20 hours): 0.0%; CC50 at 1 h (in vitro): > 400 µM; Metabolic activity (%) P. aeruginosa (Liberec) [3, 16]: 94.2%; Metabolic activity (%) P. aeruginosa (Liberec) [3, 17]: 100.5%; Metabolic activity (%) P. aeruginosa (Liberec) [3, 18]: 79.1%; Metabolic activity (%) P. aeruginosa (Liberec) [3, 19]: 33.0%; Metabolic activity (%) P. aeruginosa (Liberec) [3, 20]: 26.7%
2 | H-Gly-Ile-Leu-Ser-Ser-Leu-Trp-Lys-Lys-Leu-Lys-Lys-Ile-Ile-Ala-Lys-NH2 (H-GILSSLWKKLKKIIAK-NH2; also: D-amino acids (positions not given here)) [XIX] | 72.8% | 2.8% | 2.3% | 2.3% | 1.7% | 8.5 µM | 6.3 µM | 13.0 µM | 6.5 µM | 26.0 µM | 3.2 µM | 2.0 µM | 3.2 µM | 6.3 µM | 1.6 µM | CC50 (human red blood cells; read-out: Hemolytic activity LC50, lysis of 50% of human erythrocytes, 1 h at 37° C.): > 200 µM
3 | H-GIMSSLMKKLKKIIKK-NH2 [VII] |  |  |  |  |  | 9.9 µM | 54.0 µM | 22.0 µM | >100 µM | 6.3 µM | 18.0 µM | 2.5 µM | 64.7 µM | 7.1 µM | 1.7 µM | FIC indexes (fractional inhibitory concentration) Combination with AMX against S. aureus (S. aureus (Liberec)): 0.167; FIC indexes (fractional inhibitory concentration) Combination with RIF against P. aeruginosa (P. aeruginosa (Liberec); peptide combined with rifampicin): 0.365; FIC indexes (fractional inhibitory concentration) Combination with TET against P. aeruginosa (P. aeruginosa (Liberec); peptide combined with tetracycline): 0.625; Antimicrobial activity MIC M. l. (Micrococcus luteus): 1.9 µM; Antifungal activity MIC C. albicans ATCC MYA-2876 [11]: 22.0 µM; Antifungal activity MIC C. tropicalis ATCC 750 [12]: 1.1 µM; Antifungal activity MIC C. albicans Olomouc [13]: 17.0 µM; Antifungal activity MIC C. glabrata ATCC 2001 [14]: 40.0 µM; Antifungal activity MIC C. krusei ATCC 6258 (Candida krusei ATCC 6258): 10.0 µM; Antifungal activity MIC C. dubliniensis ATCC MYA-646 [15]: 20.0 µM; Antifungal activity MIC C. glabrata DSY 565 (Candida glabrata DSY 565): 97.8 µM; HC50 at 1 h (in vitro): > 400 µM
4 | H-GIMSSLMKKLAAHIAK-NH2 [hylanine, reference compound] |  |  |  |  |  |  |  |  |  |  |  |  |  |  |  | toxicity against eukaryotic cells measured as hemolytic activity (human red blood cells; in words): very low
